Laboratory results: ChEMBL document CHEMBL4311982, “Discovery of novel, potent, isosteviol-based antithrombotic agents” (Eur J Med Chem, 2019)
pKi: −log10 of the molar value.

Biological target: Coagulation factor X (Homo sapiens, UniProt P00742)
Assay: Inhibition of human activated Factor X using S-2765 as substrate incubated for 15 mins followed by substrate addition and measured after 1 hr by chromogenic assay
Wherever TT is given: test concentration or dose not given here.

Chain of Coagulation factor X (P00742 41-179 limits assumed): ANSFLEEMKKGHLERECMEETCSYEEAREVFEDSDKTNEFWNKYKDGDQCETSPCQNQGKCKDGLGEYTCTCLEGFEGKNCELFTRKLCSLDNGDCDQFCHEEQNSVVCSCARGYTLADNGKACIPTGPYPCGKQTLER
Chain of Coagulation factor X (P00742 235-488 limits assumed): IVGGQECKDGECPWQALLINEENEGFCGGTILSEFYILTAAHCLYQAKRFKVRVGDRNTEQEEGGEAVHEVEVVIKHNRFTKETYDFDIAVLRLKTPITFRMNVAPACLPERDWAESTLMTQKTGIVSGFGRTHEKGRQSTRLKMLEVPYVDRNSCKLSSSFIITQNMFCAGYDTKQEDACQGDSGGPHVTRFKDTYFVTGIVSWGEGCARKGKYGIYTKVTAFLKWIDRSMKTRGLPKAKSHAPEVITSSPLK

Structure (SMILES) | pKi
CCOC(=O)[C@]1(C)CCC[C@@]2(C)[C@@H]3CC[C@@]4(C)C[C@]3(CC[C@@H]21)C/C4=N\OC/C=C/c1cccc(C(F)(F)F)c1 | 5.31
CCOC(=O)[C@]1(C)CCC[C@@]2(C)[C@@H]3CC[C@@]4(C)C[C@]3(CC[C@@H]21)CC4=O | 5.34
CCOC(=O)[C@]1(C)CCC[C@@]2(C)[C@@H]3CC[C@@]4(C)C[C@]3(CC[C@@H]21)C/C4=N\OCc1ccc(C(F)(F)F)cc1 | 5.57
CCOC(=O)[C@]1(C)CCC[C@@]2(C)[C@@H]3CC[C@@]4(C)C[C@]3(CC[C@@H]21)C/C4=N\OCc1c(F)c(F)c(F)c(F)c1F | 6.49
C[C@@]12CC[C@@H]3[C@@](CC[C@H]4[C@@]3(C)CCC[C@@]4(C)C(=O)O)(C/C1=N/O)C2 | 5.10
CCOC(=O)[C@]1(C)CCC[C@@]2(C)[C@@H]3CC[C@@]4(C)C[C@]3(CC[C@@H]21)C/C4=N\OC/C=C/c1ccc2[nH]c3ccccc3c2c1 | 4.58
CCOC(=O)[C@]1(C)CCC[C@@]2(C)[C@@H]3CC[C@@]4(C)C[C@]3(CC[C@@H]21)C/C4=N\OC/C=C/c1cc(F)c(F)c(F)c1 | 5.70
CCOC(=O)[C@]1(C)CCC[C@@]2(C)[C@@H]3CC[C@@]4(C)C[C@]3(CC[C@@H]21)C/C4=N\OC/C=C/c1ccc(C#N)cc1 | 4.87
C[C@@]12CC[C@@H]3[C@@](CC[C@H]4[C@@]3(C)CCC[C@@]4(C)C(=O)O)(C[C@H]1O)C2 | 4.56
CCOC(=O)[C@]1(C)CCC[C@@]2(C)[C@@H]3CC[C@@]4(C)C[C@]3(CC[C@@H]21)C/C4=N\OC/C=C/c1ccc([N+](=O)[O-])cc1 | 5.58
CCOC(=O)[C@]1(C)CCC[C@@]2(C)[C@@H]3CC[C@@]4(C)C[C@]3(CC[C@@H]21)C/C4=N\OCc1cc(C)nn1C | 5.40
CCOC(=O)[C@]1(C)CCC[C@@]2(C)[C@@H]3CC[C@@]4(C)C[C@]3(CC[C@@H]21)C/C4=N\OC/C=C/c1ccc(F)cc1 | 5.21
CCOC(=O)[C@]1(C)CCC[C@@]2(C)[C@@H]3CC[C@@]4(C)C[C@]3(CC[C@@H]21)C/C4=N/O | 5.58
CCOC(=O)[C@]1(C)CCC[C@@]2(C)[C@@H]3CC[C@@]4(C)C[C@]3(CC[C@@H]21)C[C@H]4O | 4.60
CCOC(=O)[C@]1(C)CCC[C@@]2(C)[C@@H]3CC[C@@]4(C)C[C@]3(CC[C@@H]21)C/C4=N\OC1CCOCC1 | 5.74
CCOC(=O)[C@]1(C)CCC[C@@]2(C)[C@@H]3CC[C@@]4(C)C[C@]3(CC[C@@H]21)C/C4=N\OCc1cccc(Cl)c1 | 4.74
C[C@@]12CC[C@@H]3[C@@](CC[C@H]4[C@@]3(C)CCC[C@@]4(C)C(=O)O)(CC1=O)C2 [ISOSTEVIOL] | 4.87
CCOC(=O)c1ccc(CO/N=C2\C[C@]34CC[C@H]5[C@@](C)(CCC[C@@]5(C)C(=O)OCC)[C@@H]3CC[C@@]2(C)C4)o1 | 5.01
CCOC(=O)[C@]1(C)CCC[C@@]2(C)[C@@H]3CC[C@@]4(C)C[C@]3(CC[C@@H]21)C/C4=N\OCc1csc2ccc(Cl)cc12 | 6.29

Second part, the compound after the results:

pKi | Structure (SMILES)
5.60 | CCOC(=O)[C@]1(C)CCC[C@@]2(C)[C@@H]3CC[C@@]4(C)C[C@]3(CC[C@@H]21)C/C4=N\OC/C=C/c1ccc(CN2CCOCC2)cc1
5.99 | CCOC(=O)[C@]1(C)CCC[C@@]2(C)[C@@H]3CC[C@@]4(C)C[C@]3(CC[C@@H]21)C/C4=N\OCc1ccc(OC(F)(F)F)cc1
5.36 | CCOC(=O)[C@]1(C)CCC[C@@]2(C)[C@@H]3CC[C@@]4(C)C[C@]3(CC[C@@H]21)C/C4=N\OCc1ccc(F)cc1
5.79 | CCOC(=O)[C@]1(C)CCC[C@@]2(C)[C@@H]3CC[C@@]4(C)C[C@]3(CC[C@@H]21)C/C4=N\OCC1OCCO1
5.72 | CCOC(=O)[C@]1(C)CCC[C@@]2(C)[C@@H]3CC[C@@]4(C)C[C@]3(CC[C@@H]21)C/C4=N\OC/C=C/c1c[nH]c(C(=O)OC)c1
5.71 | CCOC(=O)[C@]1(C)CCC[C@@]2(C)[C@@H]3CC[C@@]4(C)C[C@]3(CC[C@@H]21)C/C4=N\OCc1cnc(Cl)s1
5.33 | CCOC(=O)[C@]1(C)CCC[C@@]2(C)[C@@H]3CC[C@@]4(C)C[C@]3(CC[C@@H]21)C/C4=N\OC/C=C/c1ccc2[nH]ccc2c1
4.68 | CCOC(=O)[C@]1(C)CCC[C@@]2(C)[C@@H]3CC[C@@]4(C)C[C@]3(CC[C@@H]21)C/C4=N\OC/C=C/c1ccc2c(c1)COC2=O
5.70 | CCOC(=O)[C@]1(C)CCC[C@@]2(C)[C@@H]3CC[C@@]4(C)C[C@]3(CC[C@@H]21)C/C4=N\OC/C=C/c1ccc(OC(F)(F)F)cc1
4.68 | CCOC(=O)[C@]1(C)CCC[C@@]2(C)[C@@H]3CC[C@@]4(C)C[C@]3(CC[C@@H]21)C/C4=N\OC/C=C/c1ccc2oc3ccccc3c2c1
5.07 | C=CCO/N=C1\C[C@]23CC[C@H]4[C@@](C)(CCC[C@@]4(C)C(=O)OCC)[C@@H]2CC[C@@]1(C)C3
5.44 | CCOC(=O)[C@]1(C)CCC[C@@]2(C)[C@@H]3CC[C@@]4(C)C[C@]3(CC[C@@H]21)C/C4=N\OC/C=C/c1ccc2nccnc2c1
5.01 | CCOC(=O)[C@]1(C)CCC[C@@]2(C)[C@@H]3CC[C@@]4(C)C[C@]3(CC[C@@H]21)C/C4=N\OCc1ccc(Cl)c(F)c1
4.97 | CCOC(=O)[C@]1(C)CCC[C@@]2(C)[C@@H]3CC[C@@]4(C)C[C@]3(CC[C@@H]21)C/C4=N\OC/C=C/c1ccccc1
5.71 | CCOC(=O)[C@]1(C)CCC[C@@]2(C)[C@@H]3CC[C@@]4(C)C[C@]3(CC[C@@H]21)C/C4=N\OC/C=C/c1ccc(-c2cnco2)cc1
6.68 | CCOC(=O)[C@]1(C)CCC[C@@]2(C)[C@@H]3CC[C@@]4(C)C[C@]3(CC[C@@H]21)C/C4=N\OC/C=C/c1ccc2sccc2c1
4.99 | CCOC(=O)[C@]1(C)CCC[C@@]2(C)[C@@H]3CC[C@@]4(C)C[C@]3(CC[C@@H]21)C/C4=N\OC/C=C/c1ccc2occc2c1
6.11 | CCOC(=O)[C@]1(C)CCC[C@@]2(C)[C@@H]3CC[C@@]4(C)C[C@]3(CC[C@@H]21)C/C4=N\OCCN1CCOCC1
4.92 | CCOC(=O)[C@]1(C)CCC[C@@]2(C)[C@@H]3CC[C@@]4(C)C[C@]3(CC[C@@H]21)C/C4=N\OC/C=C/c1cccc2ccccc12
5.54 | CCOC(=O)[C@]1(C)CCC[C@@]2(C)[C@@H]3CC[C@@]4(C)C[C@]3(CC[C@@H]21)C/C4=N\OCc1c(C)noc1C
5.03 | CCOC(=O)[C@]1(C)CCC[C@@]2(C)[C@@H]3CC[C@@]4(C)C[C@]3(CC[C@@H]21)C/C4=N\OCc1cc(Cl)ccc1Cl
5.78 | CCOC(=O)[C@]1(C)CCC[C@@]2(C)[C@@H]3CC[C@@]4(C)C[C@]3(CC[C@@H]21)C/C4=N\OC/C=C/c1ccc(C(C)=O)cc1
5.38 | CCOC(=O)[C@]1(C)CCC[C@@]2(C)[C@@H]3CC[C@@]4(C)C[C@]3(CC[C@@H]21)C/C4=N\OC/C=C/c1ccc2ncccc2c1

Species on record: Rattus norvegicus

Structure (SMILES) | TT
CCOC(=O)[C@]1(C)CCC[C@@]2(C)[C@@H]3CC[C@@]4(C)C[C@]3(CC[C@@H]21)CC4=O | 14.9 min
COC(=O)[C@H](c1ccccc1Cl)N1CCc2sccc2C1 [CLOPIDOGREL] | 21 min
C[C@@]12CC[C@@H]3[C@@](CC[C@H]4[C@@]3(C)CCC[C@@]4(C)C(=O)O)(C/C1=N/O)C2 | 12.9 min
C[C@@]12CC[C@@H]3[C@@](CC[C@H]4[C@@]3(C)CCC[C@@]4(C)C(=O)O)(C[C@H]1O)C2 | 9.2 min
CCOC(=O)[C@]1(C)CCC[C@@]2(C)[C@@H]3CC[C@@]4(C)C[C@]3(CC[C@@H]21)C/C4=N/O | 18.9 min
CCOC(=O)[C@]1(C)CCC[C@@]2(C)[C@@H]3CC[C@@]4(C)C[C@]3(CC[C@@H]21)C[C@H]4O | 9.4 min
C[C@@]12CC[C@@H]3[C@@](CC[C@H]4[C@@]3(C)CCC[C@@]4(C)C(=O)O)(CC1=O)C2 [ISOSTEVIOL] | 17.2 min
